Values quoted from earlier work as cited in patent US5922690A (priority 1997, dated 1999).

Test system: rabbits
Conditions: in vivo

Row | Substance | Multiple of the antithrombotic dose injected without increasing bleeding (rabbit) | Bleeding from a standardized incision in a rabbit's ear, heparin versus DS
1 | dermatan sulfate [DS] | up to forty times | –
2 | heparin | – | much greater
